Publication PMC8667925, “New 1,2,4-oxadiazole derivatives with positive mGlu4 receptor modulation activity and antipsychotic-like properties” (Journal of Enzyme Inhibition and Medicinal Chemistry, 2021)
“Also recorded” adds a separate entry of the source. Marks after values point to notes of the source that are not given here.

Assays:
[1] = test system: Salmonella typhimurium strains TA98 and TA100; assay type: cell-based; settings: TA98 and TA100, with and without S9, ≤ 30 µM
Procedure: The primary assessment of the cardiotoxic risk and mutagenic potential of the six selected 1,2,4-oxadiazole derivatives was performed in the hERG channel assay and the mini-AMES test, respectively. The mutagenicity potential was determined in strains TA98 (frameshift mutation) and TA100 (base-pair substitution) of Salmonella typhimurium in the presence and absence of an exogenous metabolic activation system (rat liver S9 fraction) containing mammalian microsomal enzymes.
The Ames microplate fluctuation protocol (MPF) assay was performed with Salmonella typhimurium strains TA98 and TA100, […]. The bacterial strain as well as the exposure and indicator medium were obtained from Xenometrix AG (Allschwil, Switzerland). […] After the addition of indicator medium, each well of the 24-well plate was aliquoted into 48 wells of a 384-well plate.
The occurrence of reversion events to histidine prototrophy was observed as the growth of bacteria in the indicator medium without histidine after 72 h of incubation at 37 °C. Bacterial growth in 384-well plates was visualised by a colour change of medium from violet to yellow due to the addition of pH indicator dye. The absorbance was measured with a microplate reader (EnSpire) at 420 nm. The reference mutagen NQNO (0.5 mM) was used as a positive control in the experiments. The medium control baseline (MCB) was calculated, as derived from the mean number of revertants in the medium control plus one standard deviation.
AMES test was conducted with two Salmonella typhimurium strains TA98 and TA100 in the presence or absence of liver homogenate S9 to simulate the metabolic conversions of tested compounds with liver enzymes. The AMES MPF 98/100 assay from Xenometrix was performed as described by the supplier. Data were analysed with the AMES MPF calculation […]
(also on this page, place not known: TA10 cal culation TA98 - S9 Revertants TA98 + S9 Revertants - S9 Revertants TA100 + S9 Revertants TA98 - S9 Revertants TA98 + S9 Revertants TA100 - S9 Revertants 0 TA100 + S9 Revertants)

mGlu4 receptor = target: T1, mGlu4 receptor (Homo sapiens, UniProt Q14833); assay: forskolin-stimulated cAMP assay, PAM mode (EC20 of L-Glu), T-REx 293 cells; assay type: cell-based; settings: SEM where given; for EC50 / Emax: PAM mode; for EC50: EC20 (3 µM) L-Glu, T-REx 293 cells expressing human mGlu4 receptor; for Emax: T-REx-293, human mGlu4, read-out: GluMax; for Fold shift of L-Glu dose-response curve: in the presence of 10 µM of compound
T1 construct: mGlu4 receptor NM_000841, mGlu7 receptor NM_000844.2, and mGlu8 receptor NM_000845; expressed in transfected cells; host or cells: T-REx 293
T1 sequence (Q14833 33-912): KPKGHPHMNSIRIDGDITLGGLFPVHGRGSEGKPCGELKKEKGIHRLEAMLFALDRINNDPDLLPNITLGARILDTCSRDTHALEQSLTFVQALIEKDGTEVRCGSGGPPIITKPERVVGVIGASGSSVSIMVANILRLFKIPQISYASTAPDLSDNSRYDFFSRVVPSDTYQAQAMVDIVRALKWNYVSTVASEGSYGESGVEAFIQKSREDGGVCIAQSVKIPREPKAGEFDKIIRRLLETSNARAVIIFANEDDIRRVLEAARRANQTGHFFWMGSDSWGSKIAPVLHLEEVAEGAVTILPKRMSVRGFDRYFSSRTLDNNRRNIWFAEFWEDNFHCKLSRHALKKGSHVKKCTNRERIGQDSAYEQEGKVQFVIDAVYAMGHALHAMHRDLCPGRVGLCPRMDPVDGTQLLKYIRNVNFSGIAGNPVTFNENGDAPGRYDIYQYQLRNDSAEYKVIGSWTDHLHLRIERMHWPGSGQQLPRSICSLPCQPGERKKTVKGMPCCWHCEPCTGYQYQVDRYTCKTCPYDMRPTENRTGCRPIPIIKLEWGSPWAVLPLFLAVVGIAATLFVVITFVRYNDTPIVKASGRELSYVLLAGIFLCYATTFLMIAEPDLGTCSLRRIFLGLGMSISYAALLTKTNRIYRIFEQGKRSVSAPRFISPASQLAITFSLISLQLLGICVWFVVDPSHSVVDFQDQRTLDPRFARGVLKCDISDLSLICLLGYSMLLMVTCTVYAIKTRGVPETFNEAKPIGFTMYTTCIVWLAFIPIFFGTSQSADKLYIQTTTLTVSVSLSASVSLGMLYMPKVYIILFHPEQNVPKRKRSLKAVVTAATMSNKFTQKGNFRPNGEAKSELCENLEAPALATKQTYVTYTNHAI
Procedure: The activity of the compounds was assessed in vitro in a forskolin-stimulated cAMP assay in T-REx 293 cells expressing human mGlu4 receptors in the presence of an EC20 concentration of L-Glu; a PAM was identified if it potentiated cAMP inhibition by the Gi/o-dependent pathway of mGlu4 receptor activation; i.e. if it was able to produce a leftward shift in the potency of the endogenous agonist.
(§1) Determination of the intracellular cAMP through a homogeneous time-resolved fluorescence (HTRF) cAMP dynamic 2 kit from Cisbio (Codolet, France) was described previously by Chruścicka et al.[91]. Briefly, cells were grown in DMEM supplemented with 10% foetal bovine serum (FBS) (tetracycline free). Forty-eight hours before the experiments, mGlu receptor expression was induced by the addition of 0.75 µg/mL tetracycline. Twenty hours before the experiment, FBS and L-Glu were removed from the medium. Thereafter, the cells were scraped and centrifuged. A cell pellet was suspended in Hanks-HEPES (130 mM NaCl, 5.4 mM KCl, 1.8 mM CaCl2, 0.8 mM MgSO4, 0.9 mM NaH2PO4, 20 mM HEPES, and 3.25 mM glucose; pH 7.4). Then, the cell suspension was incubated in the presence of 10 µM forskolin (or 3 µM forskolin for mGlu7 receptor), the agonist L-glutamate and a compound for 5 min. Next, 10 µl of the cell suspension was mixed with 5 µl of cAMP-d2 conjugate and 5 µL of anti-cAMP cryptate conjugate. After 1 h of incubation at rt, the fluorescence at 620 nm and 665 nm was read (Tecan Infinite M1000). The results were calculated as the 665 nm/620 nm ratio multiplied by 10^4. Each sample was prepared in triplicate.
Statistical calculations were performed using GraphPad Prism 5.04 software (GraphPad Software, La Jolla, CA, USA). The curves were fitted to a 3-parametric logistic equation, allowing for the determination of EC50 values. Each data point was analysed in triplicate.

Albino Swiss mice = assay: DOI-induced head twitch test (HTR); assay type: in vivo; settings: DOI 2.5 mg/kg i.p.
Procedure: The compounds were dissolved in a small amount of 100% EtOH and then adjusted with 20% cyclodextrin, and the pH was adjusted to 6.0. The investigated compounds were administered intraperitoneally (i.p.) 60 min before the behavioural test. Control drugs i.e. diazepam, clozapine and imipramine (Sigma–Aldrich, St. Louis, USA), were administered i.p. 60 min before the behavioural test. Cyclodextrin (20%) was used as a vehicle. All solutions were prepared immediately prior to the experiments and were administered at a constant volume of 10 ml/kg.
The experiments were performed according to the procedure described in our previous studies[75]^,[80]. Briefly, to habituate mice to the experimental environment, each animal was transferred to a 12 cm (diameter) × 20 cm (height) glass cage lined with sawdust 30 min before treatment. Test compounds were administered intraperitoneally (i.p.) at doses of 2.5, 5, and 10 mg/kg body weight 60 min before the test was performed. The head twitch response (HTR) in mice was induced by DOI (2.5 mg/kg, i.p.). Immediately after treatment, the number of head twitches was counted during a 20 min session. Haloperidol and clozapine were used as the reference compounds at active doses of 0.2 and 5 mg/kg, respectively.

mGlu7 receptor = target: T2, mGlu7 receptor (Homo sapiens, UniProt Q14831); assay: cAMP accumulation assay in cells expressing mGlu7 receptor (agonist, PAM, NAM modes); assay type: cell-based; settings: 10 µM, agonist mode
T2 construct: mGlu4 receptor NM_000841, mGlu7 receptor NM_000844.2, and mGlu8 receptor NM_000845; expressed in transfected cells; host or cells: T-REx 293
T2 sequence (Q14831 35-915): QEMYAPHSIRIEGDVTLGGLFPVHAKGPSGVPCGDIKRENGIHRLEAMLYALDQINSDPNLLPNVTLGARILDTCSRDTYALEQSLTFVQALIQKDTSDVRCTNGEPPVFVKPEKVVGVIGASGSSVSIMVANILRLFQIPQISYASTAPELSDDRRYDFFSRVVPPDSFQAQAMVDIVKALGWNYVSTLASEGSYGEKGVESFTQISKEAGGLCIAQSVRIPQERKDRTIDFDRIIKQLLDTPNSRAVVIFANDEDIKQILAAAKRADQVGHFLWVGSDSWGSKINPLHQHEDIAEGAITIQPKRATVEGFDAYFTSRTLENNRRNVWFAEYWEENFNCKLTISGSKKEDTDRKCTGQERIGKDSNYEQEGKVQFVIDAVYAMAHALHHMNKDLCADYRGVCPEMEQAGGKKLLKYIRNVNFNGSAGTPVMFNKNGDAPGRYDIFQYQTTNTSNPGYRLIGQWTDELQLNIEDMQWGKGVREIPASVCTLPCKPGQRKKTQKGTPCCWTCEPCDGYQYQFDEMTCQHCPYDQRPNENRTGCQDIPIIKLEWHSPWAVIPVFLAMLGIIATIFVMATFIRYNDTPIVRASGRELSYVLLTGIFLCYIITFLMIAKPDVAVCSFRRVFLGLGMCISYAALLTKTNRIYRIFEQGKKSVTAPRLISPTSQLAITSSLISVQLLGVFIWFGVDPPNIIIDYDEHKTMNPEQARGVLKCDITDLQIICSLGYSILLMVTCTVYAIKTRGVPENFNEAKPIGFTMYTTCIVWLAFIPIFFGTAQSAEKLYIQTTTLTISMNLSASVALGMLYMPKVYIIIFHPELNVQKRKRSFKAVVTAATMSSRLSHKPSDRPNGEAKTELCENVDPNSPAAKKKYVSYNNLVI
Procedure: The compounds were tested in the agonist, PAM (in the presence of EC20 concentration of L-Glu) or NAM (with EC80 of L-Glu) modes of forskolin-induced cAMP using T-REx 293 cells expressing the protein of a given receptor.
Figure 4. The activity of compounds 34, 37, 49, 52, 60, 62 and reference drugs MMPIP (a selective NAM of mGlu7 receptor) and AZ12216052 (a PAM of mGlu8 receptor) tested at a concentration of 10 μM in the cAMP accumulation assay in cells expressing mGlu7 and mGlu8 receptors. The percent activity refers to two extreme FRET signals: 0% corresponds to forskolin treatment alone and 100% to maximal FRET signal for the control cells (without any treatment). A/D – agonistic activity; B/E – PAM activity measured in the presence of L-Glu at the EC20 concentration (0.1 mM for mGlu7 receptor, and 1 μM for mGlu8 receptor); C/F – NAM activity measured in the presence of L-Glu at the EC80 concentration (1 mM for mGlu7 receptor, 10 μM for Glu8 receptor).
as §1

[2] = over the doses 2.5, 5 and 10 mg/kg i.p.
[3] = 2.5 mg/kg i.p., 60 min before test
[4] = 10 mg/kg i.p., 60 min before test

SMILES	mutagenic activity (mini-AMES) [1]	EC50 (mGlu4 receptor) [nM]	Emax (mGlu4 receptor) [%]	Fold shift of L-Glu dose-response curve (mGlu4 receptor)	effect on DOI-induced HTR (Albino Swiss mice; [2])	agonistic activity at mGlu7 receptor (mGlu7 receptor)	effect on DOI-induced HTR (Albino Swiss mice; [3])	effect on DOI-induced HTR (Albino Swiss mice; 5 mg/kg i.p., 60 min before test)	effect on DOI-induced HTR (Albino Swiss mice; [4])
COc1cc(NC(=O)c2ccccn2)ccc1-c1noc(-c2ccccc2F)n1 [Compound 37]	no mutagenic potential	393	116	3.68 (0.19)^d	significant anxiolytic- and antipsychotic-like properties; also recorded: reversed the DOI-induced effect at all investigated doses; also recorded: dose-dependent reverse effects	direct agonistic activity			
O=C(Nc1ccc(-c2noc(-c3ccccc3Cl)n2)c(C(F)(F)F)c1)c1ccccn1 [Compound 60]	no mutagenic potential	390	120	2.94 (0.1)^d	significant anxiolytic- and antipsychotic-like properties	direct agonistic activity	significant reductions in the HTR score	not statistically significant	significant reductions in the HTR score
O=C(Nc1ccc(-c2noc(-c3ccccc3Cl)n2)c(Cl)c1)c1ccccn1 [Compound 52, N-(3-chloro-4-(5-(2-chlorophenyl)-1,2,4-oxadiazol-3-yl)phenyl)picolinamide]	no mutagenic potential	282	123	8.03 (0.76)^d	significant anxiolytic- and antipsychotic-like properties; also recorded: at all doses significantly reduced; also recorded: Clear dose-response effects	direct agonistic activity			
COc1cc(NC(=O)c2ccccn2)ccc1-c1noc(-c2ccccc2Cl)n1 [Compound 34]	no mutagenic potential	656	114	13.4 (2.00)^d	significant anxiolytic- and antipsychotic-like properties	direct agonistic activity	statistically significant effect; also recorded: significant reductions in the HTR score		statistically significant effect; also recorded: significant reductions in the HTR score
